# Assay results: BindingDB's records for patent US20250059204 (Aurigene Oncology, 2025)
# Biological target: Histone acetyltransferase KAT6A (UniProt Q92794)
# Test: KAT6A Biochemical Assay
# From the text: TR-FRET is homogeneous proximity assay where Europium-labelled anti-acetyl lysine antibody binds to the acetylated substrate labelled with biotin which in turn binds to streptavidin labelled APC fluorescence acceptor. Europium can transfer energy to APC in the complex and the interaction of two dye-labelled binding partners is detected by the energy transfer between a donor and an acceptor dye, and the subsequent light emission by the acceptor dye. KAT6A transfer an acetyl group from acetyl CoA to lysine amino acids of histones/target proteins. Typically, 5 μL of human-KAT6A (MYST domain 507-778 aa) in assay buffer (100 mM Tris HCl (pH 7.8), 15 mM NaCl, 1 mM EDTA, 0.01% Tween-20, 0.02% BSA, 1 mM DTT) is added to 384-well plate containing 5 μL of selected test compound in final 1% DMSO, serially diluted in 1:3 in an 8-10-point titration. The selected compound of the present invention and enzyme are incubated for 30 min at room temperature. Next, 5 μL of substrate mix containing histone H4 peptide and acetyl-CoA in assay buffer is added to the plate. The final concentrations of H4 peptide and acetyl-CoA are 200 nM and 600 nM respectively. […] The plate is further incubated for 45 min at room temperature and is read in TR-FRET mode (Ex:340 nm; Em: 615 nm and 665 nm) on a plate reader.
# Sequence of Histone acetyltransferase KAT6A (Q92794 whole entry): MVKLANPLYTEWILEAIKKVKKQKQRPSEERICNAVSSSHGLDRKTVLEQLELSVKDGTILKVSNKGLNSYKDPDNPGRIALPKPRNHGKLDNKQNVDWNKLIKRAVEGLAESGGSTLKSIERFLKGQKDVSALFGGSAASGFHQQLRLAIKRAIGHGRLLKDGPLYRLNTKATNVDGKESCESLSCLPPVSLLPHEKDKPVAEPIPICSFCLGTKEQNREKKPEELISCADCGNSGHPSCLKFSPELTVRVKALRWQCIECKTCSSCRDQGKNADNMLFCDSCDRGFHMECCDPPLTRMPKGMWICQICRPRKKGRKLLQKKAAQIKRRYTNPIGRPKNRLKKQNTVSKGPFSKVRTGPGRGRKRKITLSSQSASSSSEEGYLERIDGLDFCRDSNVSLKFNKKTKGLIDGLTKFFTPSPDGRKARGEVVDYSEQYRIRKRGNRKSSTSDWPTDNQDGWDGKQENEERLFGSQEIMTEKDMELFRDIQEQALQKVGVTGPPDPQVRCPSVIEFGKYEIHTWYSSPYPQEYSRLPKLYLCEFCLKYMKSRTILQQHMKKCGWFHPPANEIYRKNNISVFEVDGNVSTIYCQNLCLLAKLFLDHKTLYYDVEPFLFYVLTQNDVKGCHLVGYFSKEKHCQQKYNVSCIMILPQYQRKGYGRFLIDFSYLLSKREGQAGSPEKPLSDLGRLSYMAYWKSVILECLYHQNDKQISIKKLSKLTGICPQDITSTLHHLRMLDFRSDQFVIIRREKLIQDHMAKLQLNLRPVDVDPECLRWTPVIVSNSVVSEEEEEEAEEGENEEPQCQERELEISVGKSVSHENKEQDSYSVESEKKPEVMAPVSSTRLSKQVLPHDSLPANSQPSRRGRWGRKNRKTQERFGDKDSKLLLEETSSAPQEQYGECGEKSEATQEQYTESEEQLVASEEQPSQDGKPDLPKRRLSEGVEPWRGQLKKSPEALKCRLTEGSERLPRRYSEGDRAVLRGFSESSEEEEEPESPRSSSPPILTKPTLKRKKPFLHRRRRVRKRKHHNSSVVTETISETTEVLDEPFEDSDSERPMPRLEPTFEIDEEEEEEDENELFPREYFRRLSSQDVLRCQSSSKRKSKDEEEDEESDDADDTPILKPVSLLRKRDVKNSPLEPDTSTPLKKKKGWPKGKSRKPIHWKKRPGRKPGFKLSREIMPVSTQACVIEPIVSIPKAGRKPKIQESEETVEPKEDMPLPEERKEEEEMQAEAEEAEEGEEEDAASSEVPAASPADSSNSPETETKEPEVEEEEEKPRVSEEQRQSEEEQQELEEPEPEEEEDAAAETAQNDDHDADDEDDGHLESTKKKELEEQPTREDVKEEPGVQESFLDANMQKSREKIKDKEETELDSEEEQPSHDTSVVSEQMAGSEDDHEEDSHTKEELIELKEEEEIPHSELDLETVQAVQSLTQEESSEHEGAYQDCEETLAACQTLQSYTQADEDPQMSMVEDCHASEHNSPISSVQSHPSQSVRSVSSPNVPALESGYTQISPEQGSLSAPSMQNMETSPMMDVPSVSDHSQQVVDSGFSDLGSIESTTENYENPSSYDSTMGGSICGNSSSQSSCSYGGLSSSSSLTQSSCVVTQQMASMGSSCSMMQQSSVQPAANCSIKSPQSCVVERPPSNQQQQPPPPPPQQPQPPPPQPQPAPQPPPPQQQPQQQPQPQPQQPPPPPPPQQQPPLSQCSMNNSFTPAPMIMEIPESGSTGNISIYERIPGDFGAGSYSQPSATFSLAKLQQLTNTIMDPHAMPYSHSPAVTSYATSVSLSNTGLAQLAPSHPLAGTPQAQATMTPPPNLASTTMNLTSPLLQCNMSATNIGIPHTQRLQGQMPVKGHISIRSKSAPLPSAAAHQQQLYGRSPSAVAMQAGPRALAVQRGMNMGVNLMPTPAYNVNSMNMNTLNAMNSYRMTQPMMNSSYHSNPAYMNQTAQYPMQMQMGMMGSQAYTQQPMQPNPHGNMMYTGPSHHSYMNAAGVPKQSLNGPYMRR
row,Compound,IC50 [nM]
1,"COc1cccc(OC)c1S(=O)(=O)Nc1noc2cc(-c3cscc3C)c3c(c12)OCC3 [US20250059204, Compound 14]",156
2,"COc1cccc(OC)c1S(=O)(=O)Nc1noc2cc(Cn3cccn3)c3c(c12)OC(C)(C)C3 [US20250059204, Compound 56]",43
